Here are results for 34 molecules from patent US10995091B2 (Proximagen, LLC, priority 2010, dated 2021).

The target in this assay is T1, Human CXCR4 transfected HEK293 cells (Homo sapiens, UniProt P61073).
T1 construct: expressed in transfected cells; host or cells: HEK293
T1 sequence (P61073 whole entry): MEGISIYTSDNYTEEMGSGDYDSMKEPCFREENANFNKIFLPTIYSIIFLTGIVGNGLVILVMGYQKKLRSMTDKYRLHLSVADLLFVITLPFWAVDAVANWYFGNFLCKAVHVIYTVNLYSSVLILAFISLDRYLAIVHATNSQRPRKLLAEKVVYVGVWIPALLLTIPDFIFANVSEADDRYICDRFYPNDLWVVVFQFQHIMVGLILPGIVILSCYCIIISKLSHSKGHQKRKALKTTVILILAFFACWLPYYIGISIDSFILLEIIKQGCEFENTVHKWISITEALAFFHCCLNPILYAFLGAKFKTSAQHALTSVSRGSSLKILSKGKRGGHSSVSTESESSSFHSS
The experiment in a line: CXCR4 functional calcium assay (calcium flux FLIPR, antagonism of SDF1 response). Type of assay: cell-based. As to conditions: CXCR4 functional activity, antagonism of SDF1 (EC50 concentration), read-out: CXCR4 fKi. A digest of the protocol: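 Dose-dependent antagonism of the SDF1 response was read by FLIPR as Fluo-4 calcium signal (2 μM dye) in CXCR4-expressing human HEK293 cells, in HBSS with probenecid, BSA and HEPES at pH 7.4 and 37° C. Test compound was given before an EC50-level SDF1 challenge. Curves were then fitted.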
For orientation: Calcium assays in cells follow changes in intracellular calcium, usually with a dye or a luminescent sensor.
With `c1cc(NCCNC2CCN(C3CCCC3)C2)nc(-c2ncc(C3CC3)[nH]2)c1` (stereo not shown) [Example 233, N-{2-[(1-Cyclopentylpyrrolidin-3-yl)amino]ethyl}-6-(5-cyclopropyl-1H-imidazol-2-yl)pyridin-2-amine], the Ki is 500 to 1000 nM.

Regarding `CC(C)N1CCCC(NCCNc2cccc(C(=O)Nc3ccncc3)n2)CC1` (stereo not shown) [Example 234, 6-[(2-{[1-(Propan-2-yl)azepan-4-yl]amino}ethyl)amino]-N-(pyridin-4-yl)pyridine-2-carboxamide], the Ki was 100 to 500 nM.

Consider `CCc1cnc(-c2cccc(NCCNC3CCN([C@H](C)CC)CC3)n2)[nH]1` [Example 235, 1-[(2R)-Butan-2-yl]-N-(2-{[6-(4-ethyl-1H-imidazol-2-yl)pyridin-2-yl]amino}ethyl)piperidin-4-amine], for which the Ki was in the range of 100 to 500 nM.

As to `Cc1nc(-c2cccc(NCCNC3CCN(C(C)C)CC3)n2)[nH]c1C1CC1` [Example 236, N-(2-{[6-(5-Cyclopropyl-4-methyl-1H-imidazol-2-yl)pyridin-2-yl]amino}ethyl)-1-(propan-2-yl)piperidin-4-amine], the Ki is 100 to 500 nM.

`c1cc(NCCNCCCNC2CCCC2)nc(-c2ncc(C3CC3)[nH]2)c1` [Example 237, N-(2-{[3-(Cyclopentylamino)propyl]amino}ethyl)-6-(5-cyclopropyl-1H-imidazol-2-yl)pyridin-2-amine]: the Ki is 100 to 500 nM.

Regarding `CC(C)N1CCCC(N(C)CCN(C)c2cccc(C(=O)Nc3ccncc3)n2)CC1` (stereo not shown) [Example 238, 6-[Methyl(2-{methyl[1-(propan-2-yl)azepan-4-yl]amino}ethyl)amino]-N-(pyridin-4-yl)pyridine-2-carboxamide], the Ki was 100 to 500 nM.

In the case of `CC(C)N1CCC(NCCCNc2cccc(C(=O)Nc3ccncc3)n2)CC1` [Example 239, 6-[(3-{[1-(Propan-2-yl)piperidin-4-yl]amino}propyl)amino]-N-(pyridin-4-yl)pyridine-2-carboxamide], the Ki lay in the range of 100 to 500 nM.

For `Cc1ccccc1CN1CCCC(N2CCN(c3cccc(C(=O)Nc4ccncc4)n3)CC2)CC1` (stereo not shown) [Example 240, 6-(4-{1-[(2-Methylphenyl)methyl]azepan-4-yl}piperazin-1-yl)-N-(pyridin-4-yl)pyridine-2-carboxamide], the Ki fell in the range of 20 to 100 nM.

For `O=C(Nc1ccncc1)c1cccc(N2CCN(C3CCCN(Cc4ccc(F)cc4Cl)CC3)CC2)n1` (stereo not shown) [Example 241, 6-(4-{1-[(2-Chloro-4-fluorophenyl)methyl]azepan-4-yl}piperazin-1-yl)-N-(pyridin-4-yl)pyridine-2-carboxamide], the Ki fell in the range of 20 to 100 nM.

`CC(C)N1CCCC(N2CCN(c3cccc(C(=O)Nc4ccncc4)n3)CC2)CC1` (stereo not shown) [Example 242, 6-{4-[1-(Propan-2-yl)azepan-4-yl]piperazin-1-yl}-N-(pyridin-4-yl)pyridine-2-carboxamide]: the Ki was 100 to 500 nM.

Take `Cc1nc(-c2cccc(N3CCN(C4CCCN(C(C)C)CC4)CC3)n2)[nH]c1C1CC1` (stereo not shown) [Example 243, 4-{4-[6-(5-Cyclopropyl-4-methyl-1H-imidazol-2-yl)pyridin-2-yl]piperazin-1-yl}-1-(propan-2-yl)azepane]: the Ki was 100 to 500 nM.

On to `CC(C)N1CCO[C@H](CN2CCCN(c3cccc(C(=O)Nc4ccncc4)n3)CC2)C1` [Example 244, 6-(4-{[(2R)-4-(Propan-2-yl)morpholin-2-yl]methyl}-1,4-diazepan-1-yl)-N-(pyridin-4-yl)pyridine-2-carboxamide], for which the Ki was 20 to 100 nM.

For `Cc1nc(-c2cccc(N3CCN(C4CCCN(C5CCCC5)CC4)CC3)n2)[nH]c1C1CC1` (stereo not shown) [Example 245, 1-Cyclopentyl-4-{4-[6-(5-cyclopropyl-4-methyl-1H-imidazol-2-yl)pyridin-2-yl]piperazin-1-yl}azepane], the Ki lay in the range of 20 to 100 nM.

As for `Cc1nc(-c2cccc(NCCNC3CCCN(C4CCCC4)CC3)n2)[nH]c1C1CC1` (stereo not shown) [Example 246, 1-Cyclopentyl-N-(2-{[6-(5-cyclopropyl-4-methyl-1H-imidazol-2-yl)pyridin-2-yl]amino}ethyl)azepan-4-amine], the Ki fell in the range of 20 to 100 nM.

Consider `Cc1nc(-c2cccc(NCCNC[C@@H]3CCN(C4CCCC4)C3)n2)[nH]c1C1CC1` [Example 247, {[(3S)-1-Cyclopentylpyrrolidin-3-yl]methyl}(2-{[6-(5-cyclopropyl-4-methyl-1H-imidazol-2-yl)pyridin-2-yl]amino}ethyl)amine], for which the Ki lay in the range of 20 to 100 nM.

Consider `O=C(NCC1CC1)c1cccc(N2CCC(NCc3ccccc3Cl)CC2)n1` [Example 248, 6-(4-{[(2-Chlorophenyl)methyl]amino}piperidin-1-yl)-N-(cyclopropylmethyl)pyridine-2-carboxamide], for which the Ki was in the range of 500 to 1000 nM.

`CC(C)N1CCC(NC2CCN(c3cccc(C(=O)Nc4ccncc4)n3)CC2)CC1` [Example 249, 6-(4-{[1-(Propan-2-yl)piperidin-4-yl]amino}piperidin-1-yl)-N-(pyridin-4-yl)pyridine-2-carboxamide]: the Ki was 100 to 500 nM.

Turning to `CCCCNC(=O)c1cccc(N2CCCN(CC3CN(C(C)C)CCO3)CC2)n1` (stereo not shown) [Example 250, N-Butyl-6-(4-{[4-(propan-2-yl)morpholin-2-yl]methyl}-1,4-diazepan-1-yl)pyridine-2-carboxamide], the Ki lay within 20 to 100 nM.

Take `O=C(Nc1ccncc1)c1cccc(N2CCCN(Cc3ccc(F)cc3Cl)CC2)n1` [Example 251, 6-{4-[(2-Chloro-4-fluorophenyl)methyl]-1,4-diazepan-1-yl}-N-(pyridin-4-yl)pyridine-2-carboxamide]: the Ki lay in the range of 100 to 500 nM.

In the case of `O=C(NCC1CC1)c1cccc(N2CCCN(CCCN3CCc4ccccc4C3)CC2)n1` [Example 252, N-(Cyclopropylmethyl)-6-{4-[3-(1,2,3,4-tetrahydroisoquinolin-2-yl)propyl]-1,4-diazepan-1-yl}pyridine-2-carboxamide], the Ki fell in the range of 500 to 1000 nM.

`O=C(NCC1CC1)c1cccc(N2CCCN(CCCN3CCC(F)(F)C3)CC2)n1` [Example 253, N-(Cyclopropylmethyl)-6-{4-[3-(3,3-difluoropyrrolidin-1-yl)propyl]-1,4-diazepan-1-yl}pyridine-2-carboxamide]: the Ki fell in the range of 500 to 1000 nM.

Take `CC(C)NCC(O)CN1CCCN(c2cccc(C(=O)NCc3cccnc3)n2)CC1` (stereo not shown) [Example 254, 6-{4-[2-Hydroxy-3-(propan-2-ylamino)propyl]-1,4-diazepan-1-yl}-N-(pyridin-3-ylmethyl)pyridine-2-carboxamide]: the Ki is 100 to 500 nM.

As to `c1cc(-c2ncc(C3CC3)[nH]2)nc(N2CCCN(C3CCC(N4CCCC4)CC3)CC2)c1` (stereo not shown) [Example 255, 1-[6-(4-Cyclopropyl-1H-imidazol-2-yl)pyridin-2-yl]-4-[4-(pyrrolidin-1-yl)cyclohexyl]-1,4-diazepane], the Ki fell in the range of 100 to 500 nM.

With `CC(C)(C)C1CCC(N2CCCN(c3cccc(C(=O)NCc4cccnc4)n3)CC2)CC1` (stereo not shown) [Example 256, 6-[4-(4-tert-Butylcyclohexyl)-1,4-diazepan-1-yl]-N-(pyridin-3-ylmethyl)pyridine-2-carboxamide], the Ki lay in the range of 20 to 100 nM.

Regarding `O=C(Nc1ccncc1)c1cccc(N2CCCN(C3CCC(N4CCCC4C(F)(F)F)CC3)CC2)n1` (stereo not shown) [Example 257, N-(Pyridin-4-yl)-6-(4-{4-[2-(trifluoromethyl)pyrrolidin-1-yl]cyclohexyl}-1,4-diazepan-1-yl)pyridine-2-carboxamide], the Ki fell in the range of 500 to 1000 nM.

With `O=C(NCC1CC1)c1cccc(N2CCCN(CCCNCc3ccccc3Cl)CC2)n1` [Example 258, 6-[4-(3-{[(2-Chlorophenyl)methyl]amino}propyl)-1,4-diazepan-1-yl]-N-(cyclopropylmethyl)pyridine-2-carboxamide], the Ki was in the range of 100 to 500 nM.

For `N#Cc1cccc(N2CCCN(C3CCN(Cc4ccccc4Cl)CC3)CC2)n1` [Example 259, 6-(4-{1-[(2-Chlorophenyl)methyl]piperidin-4-yl}-1,4-diazepan-1-yl)pyridine-2-carbonitrile], the Ki lay within 500 to 1000 nM.

As for `OCc1cccc(N2CCCN(C3CCN(Cc4ccccc4Cl)CC3)CC2)n1` [Example 260, [6-(4-{1-[(2-Chlorophenyl)methyl]piperidin-4-yl}-1,4-diazepan-1-yl)pyridin-2-yl]methanol], the Ki fell in the range of 500 to 1000 nM.

With `Clc1ccccc1CN1CCC(N2CCCN(c3ccccn3)CC2)CC1` [Example 261, 1-{1-[(2-Chlorophenyl)methyl]piperidin-4-yl}-4-(pyridin-2-yl)-1,4-diazepane], the Ki was 100 to 500 nM.

Turning to `Cc1cccc(N2CCCN(C3CCN(Cc4ccccc4Cl)CC3)CC2)n1` [Example 262, 1-{1-[(2-Chlorophenyl)methyl]piperidin-4-yl}-4-(6-methylpyridin-2-yl)-1,4-diazepane], the Ki lay in the range of 500 to 1000 nM.

As for `Cc1ccc(N2CCCN(C3CCN(Cc4ccccc4Cl)CC3)CC2)nc1` [Example 263, 1-{1-[(2-Chlorophenyl)methyl]piperidin-4-yl}-4-(5-methylpyridin-2-yl)-1,4-diazepane], the Ki is 100 to 500 nM.

Turning to `Cc1ccnc(N2CCCN(C3CCN(Cc4ccccc4Cl)CC3)CC2)c1` [Example 264, 1-{1-[(2-Chlorophenyl)methyl]piperidin-4-yl}-4-(4-methylpyridin-2-yl)-1,4-diazepane], the Ki was in the range of 100 to 500 nM.

On to `O=C(NCC1CC1)c1csc(N2CCCN(C3CCN(Cc4ccccc4Cl)CC3)CC2)n1` [Example 265, 2-(4-{1-[(2-Chlorophenyl)methyl]piperidin-4-yl}-1,4-diazepan-1-yl)-N-(cyclopropylmethyl)-1,3-thiazole-4-carboxamide], for which the Ki fell in the range of 500 to 1000 nM.

Regarding `Cc1cc(C(=O)NCCCn2ccnc2)nc(N2CCCN(C3CCN(Cc4ccccc4Cl)CC3)CC2)n1` [Example 266, 2-(4-{1-[(2-Chlorophenyl)methyl]piperidin-4-yl}-1,4-diazepan-1-yl)-N-[3-(1H-imidazol-1-yl)propyl]-6-methylpyrimidine-4-carboxamide], the Ki is 100 to 500 nM.
